Measured values published in article PMC3605901 (Bioorganic & medicinal chemistry, 2013).
Converted amounts (≈) assume the structure as drawn. “Also recorded” adds a separate entry of the source. Where two headings read alike, the source gives them in different places. Values belong to the compound of their own block, whether it stands above or below them.

Legend:
[1] = system: GAS strain UMAA2616; assay: microbe, parasite or virus in culture; type: cell-based, Streptococcus pyogenes (Group A Streptococcus); settings: Streptococcus pyogenes, UMAA2616, read-out: 50 μM Growth T/C
[2] = Microsomal stability assay; settings: for half-life at 1 μM: mouse, microsomes; for MLM t1/2: half-life of parent compound during incubation with mouse liver microsomes, 1 μM, 0.5 mg/mL, NADPH
[3] = system: streptokinase (SK) expression in GAS strain UMAA2616; assay: microbe, parasite or virus in culture; type: cell-based, Streptococcus pyogenes (Group A Streptococcus); settings: for IC50: read-out: IC50 (SK activity)
[4] = system: HeLa cells; assay: Mammalian cytotoxicity assay; type: cell-based; settings: up to 100 μM, the highest concentration tested; 24 hours
[5] = system: GAS infection; settings: transgenic mouse model of GAS infection; cited from earlier work
[6] = Aqueous; settings: for Aq. Sol.: kinetic solubility in aqueous Todd Hewitt (THY) bacterial media, 37°C
[7] = system: S. aureus biofilm formation; assay: Biofilm formation, plate-based OD assay; type: cell-based, Staphylococcus aureus; settings: reported in greater detail in ref 28
[8] = full dose-response titration, approximate IC50

half-life at 1 μM [2]: 2.8 min
Compound: C=CCn1c([S+]([O-])CC)nc2c(c1=O)C(C)(C)Cc1ccc(OC)cc1-2 (stereo not drawn) [compound 14, 3-allyl-2-(ethylsulfinyl)-9-methoxy-5,5-dimethyl-5,6-dihydrobenzo[h]quinazolin-4(3H)-one]
activity at 50 µM [1]: 101 ± 5%

Compound: C=CCn1c(SCc2ccc(OC)cc2)nc2c(c1=O)C1(CCCCC1)Cc1ccccc1-2 [6a, 3-allyl-2-((4-methoxybenzyl)thio)-3H-spiro[benzo[h]quinazoline-5,1′-cyclohexan]-4(6H)-one]
activity at 50 µM [1]: 105 ± 6%

Compound: 4-(allyloxy)-2-(ethylthio)-9-methoxy-5,5-dimethyl-5,6-dihydrobenzo[h]quinazoline [20c]
MLM t1/2 [2]: 8.3 min

Compound: C=CCn1c(SCCCC)nc2c(c1=O)C1(CCCCC1)Cc1ccccc1-2 [compound 1, 3-allyl-2-(butylthio)-3H-spiro[benzo[h]quinazoline-5,1′-cyclohexan]-4(6H)-one]
% of plasmin activity at 50 μM [3]: 48 ± 28% | IC50 ([3]; Streptococcus pyogenes): > 50 µM | activity at 50 µM [1]: 95 ± 8% | Inhibition of HeLa cell growth [4]: ≤ 35% | Efficacy in mouse models of GAS infection [5]: displayed efficacy; also recorded: significant protective effect | Fold higher stability to oxidation in MLM (comparison of t1/2) ([2]; 1 vs 6b, O-alkylated vs N-alkylated counterparts): more than 60 fold | solubility at 5 min [6]: 2 ± 1 µM (≈ 0.789 µg/mL)

Compound: C=CCn1c(SCc2ccccn2)nc2c(c1=O)C(C)(C)Cc1ccccc1-2 [12e, 3-allyl-5,5-dimethyl-2-((pyridin-2-ylmethyl)thio)-5,6-dihydrobenzo[h]quinazolin-4(3H)-one]
activity at 50 µM [1]: 105 ± 2%

MLM t1/2 [2]: 3.0 min
Compound: 2-(ethylthio)-9-methoxy-5,5-dimethyl-3-(2,2,2-trifluoroethyl)-5,6-dihydrobenzo[h]quinazolin-4(3H)-one [19b]

half-life at 1 μM [2]: 4.8 min
Compound: C=CCn1c(SCC(F)(F)F)nc2c(c1=O)C(C)(C)Cc1ccc(OC)cc1-2 [12l, 3-allyl-9-methoxy-5,5-dimethyl-2-((2,2,2-trifluoroethyl)thio)-5,6-dihydrobenzo[h]quinazolin-4(3H)-one]
activity at 50 µM [1]: 86 ± 7%

Compound: C=CCn1c(SCC(=O)OCC)nc2c(c1=O)C(C)(C)Cc1ccccc1-2 [compound 31]
activity at 50 µM [1]: 101 ± 2%

Compound: C=CCn1c(SCCO)nc2c(c1=O)C(C)(C)Cc1ccccc1-2 [12f, 3-allyl-2-((2-hydroxyethyl)thio)-5,5-dimethyl-5,6-dihydrobenzo[h]quinazolin-4(3H)-one]
activity at 50 µM [1]: 6 ± 3%

Compound: C=CCn1c(SCCN(C)C)nc2c(c1=O)C1(CCCCC1)Cc1ccccc1-2 [6e, 3-allyl-2-((2-(dimethylamino)ethyl)thio)-3H-spiro[benzo[h]quinazoline-5,1′-cyclohexan]-4(6H)-one]
activity at 50 µM [1]: 88 ± 20%

Compound: C=CCn1c(SCc2ccccc2)nc2c(c1=O)C1(CCCCC1)Cc1ccccc1-2 [6b, 3-allyl-2-(benzylthio)-3H-spiro[benzo[h]quinazoline-5,1′-cyclohexan]-4(6H)-one]
IC50 ([3]; Streptococcus pyogenes): > 50 µM | activity at 50 µM [1]: 96 ± 6%

half-life at 1 μM [2]: 1.7 min
Compound: CCSc1nc2c(c(=O)n1C)C(C)(C)Cc1ccc(OC)cc1-2 [12m, 2-(ethylthio)-9-methoxy-3,5,5-trimethyl-5,6-dihydrobenzo[h]quinazolin-4(3H)-one]
activity at 50 µM [1]: 83 ± 15%

Compound: 2-((2-Methoxyethyl)thio)-4-(4-methoxyphenethoxy)-5,5-dimethyl-5,6-dihydrobenzo[h]quinazoline [20a]
IC50 [3, 8]: 5.5 ± 0.7 µM | Inhibition of HeLa cell growth [4]: ≤ 35% | MLM t1/2 [2]: 45.1 min

Compound: 3-Allyl-2-(allylthio)-8-methoxy-5,5-dimethyl-5,6-dihydrobenzo[h]quinazolin-4(3H)-one [12k]
IC50 [3, 8]: 6.9 ± 0.3 µM | S. aureus biofilm inhibition [7]: potent S. aureus biofilm inhibitors | MLM t1/2 [2]: 0.6 min | Aq. Sol. [6]: 14.5 ± 3.5 µM

Compound: C=CCn1c(OCC)nc2c(c1=O)C(C)(C)Cc1ccccc1-2 [13a, 3-allyl-2-ethoxy-5,5-dimethyl-5,6-dihydrobenzo[h]quinazolin-4(3H)-one]
activity at 50 µM [1]: 50 ± 23%

Compound: 3-Allyl-2-(ethylthio)-8-isopropoxy-5,5-dimethyl-5,6-dihydrobenzo[h]quinazolin-4(3H)-one [17f]
IC50 [3, 8]: 4.1 ± 0.7 µM | Aq. Sol. [6]: 14.5 ± 3.5 µM

Compound: C=CCn1c(SCC(N)=O)nc2c(c1=O)C(C)(C)Cc1ccccc1-2 [12d, 2-((3-allyl-5,5-dimethyl-4-oxo-3,4,5,6-tetrahydrobenzo[h]quinazolin-2-yl)thio)acetamide]
activity at 50 µM [1]: 100 ± 2%

Compound: C=CCn1c(SCCOC)nc2c(c1=O)C(C)(C)Cc1ccccc1-2 [12h, 3-allyl-2-((2-methoxyethyl)thio)-5,5-dimethyl-5,6-dihydrobenzo[h]quinazolin-4(3H)-one]
activity at 50 µM [1]: 86 ± 10% | Inhibition of HeLa cell growth [4]: ≤ 35%

Compound: C=CCn1c(SCc2ccccc2)nc2c(c1=O)C(C)(C)Cc1ccccc1-2 [compound 29]
activity at 50 µM [1]: 103 ± 3% | Inhibition of HeLa cell growth [4]: ≤ 35%

half-life at 1 μM [2]: 3.8 min
Compound: C=CCn1c(S(=O)(=O)CC)nc2c(c1=O)C(C)(C)Cc1ccc(OC)cc1-2 [compound 15, 3-allyl-2-(ethylsulfonyl)-9-methoxy-5,5-dimethyl-5,6-dihydrobenzo[h]quinazolin-4(3H)-one]
activity at 50 µM [1]: 103 ± 3%

Compound: C=CCn1c(OCC)nc2c(c1=O)C1(CCCCC1)Cc1ccccc1-2 [7a, 3-allyl-2-ethoxy-3H-spiro[benzo[h]quinazoline-5,1′-cyclohexan]-4(6H)-one]
activity at 50 µM [1]: 102 ± 9%

Compound: COCCSc1nc2c(c(=O)n1CCc1ccc(OC)cc1)C(C)(C)Cc1ccccc1-2 [19a, 2-((2-Methoxyethyl)thio)-3-(4-methoxyphenethyl)-5,5-dimethyl-5,6-dihydrobenzo[h]quin-azolin-4(3H)-one]
Inhibition of HeLa cell growth [4]: ≤ 35%

Compound: C=CCn1c(SCC)nc2c(c1=O)C(C)(C)Cc1ccccc1-2 [compound 30]
activity at 50 µM [1]: 89 ± 5%

Compound: CCn1c(SCc2ccccc2)nc2c(c1=O)C1(CCCC1)Cc1ccccc1-2 [compound 28]
activity at 50 µM [1]: 107 ± 4%

Compound: C=CCn1c(SCc2ccc(NC(C)=O)cc2)nc2c(c1=O)C1(CCCCC1)Cc1ccccc1-2 [6c, N-(4-(((3-allyl-4-oxo-4,6-dihydro-3H-spiro[benzo[h]quinazoline-5,1′-cyclohexan]-2-yl)thio)methyl)phenyl)acetamide]
activity at 50 µM [1]: 96 ± 14%

Compound: C=CCn1c(SC)nc2c(c1=O)C1(CCCCC1)Cc1ccccc1-2 [6f, 3-allyl-2-(methylthio)-3H-spiro[benzo[h]quinazoline-5,1′-cyclohexan]-4(6H)-one]
activity at 50 µM [1]: 98 ± 3%

Compound: C=CCn1c(SCCOC)nc2c(c1=O)C1(CCCCC1)Cc1ccccc1-2 [6d, 3-allyl-2-((2-methoxyethyl)thio)-3H-spiro[benzo[h]quinazoline-5,1′-cyclohexan]-4(6H)-one]
activity at 50 µM [1]: 99 ± 10%

Compound: C=CCn1c(NCC)nc2c(c1=O)C(C)(C)Cc1ccccc1-2 [13b, 3-allyl-2-(ethylamino)-5,5-dimethyl-5,6-dihydrobenzo[h]quinazolin-4(3H)-one]
activity at 50 µM [1]: 6 ± 3%

Compound: CCn1c(SCCOC)nc2c(c1=O)C(C)(C)Cc1ccccc1-2 [12i, 3-ethyl-2-((2-methoxyethyl)thio)-5,5-dimethyl-5,6-dihydrobenzo[h]quinazolin-4(3H)-one]
activity at 50 µM [1]: 39 ± 15%

Compound: C=CCn1c(SCC#N)nc2c(c1=O)C(C)(C)Cc1ccccc1-2 [12g, 2-((3-allyl-5,5-dimethyl-4-oxo-3,4,5,6-tetrahydrobenzo[h]quinazolin-2-yl)thio)acetonitrile]
activity at 50 µM [1]: 100 ± 3% | solubility at 5 min [6]: 3 ± 1 µM (≈ 1.01 µg/mL)

Compound: 2-(ethylthio)-9-methoxy-5,5-dimethyl-4-(2,2,2-trifluoroethoxy)-5,6-dihydrobenzo[h]quinazoline [20b]
MLM t1/2 [2]: 45.5 min

Compound: 3-allyl-2-(ethylthio)-8-methoxy-5,5-dimethyl-5,6-dihydrobenzo[h]quinazolin-4(3H)-one [12c]
IC50 [3, 8]: 3.1 ± 0.7 µM | Inhibition of HeLa cell growth [4]: ≤ 35% | S. aureus biofilm inhibition [7]: potent S. aureus biofilm inhibitors | MLM t1/2 [2]: 0.8 min | Aq. Sol. [6]: 14.5 ± 3.5 µM

Compound: 3-allyl-2-(ethylthio)-9-methoxy-5,5-dimethyl-2,3,5,6-tetrahydrobenzo[h]quinazolin-4(1H)-one [12a]
Fold improvement in potency (IC50) over 1 [3]: greater than 35 fold | Reduction in streptokinase activity at 5 μM [3]: 90% | IC50 [3, 8]: 1.3 ± 0.6 µM | Inhibition of HeLa cell growth [4]: ≤ 35% | MLM t1/2 [2]: 2.3 min | Aq. Sol. [6]: 9 ± 2 µM

Compound: C=CCn1c(NCC)nc2c(c1=O)C1(CCCCC1)Cc1ccccc1-2 [7b, 3-allyl-2-(ethylamino)-3H-spiro[benzo[h]quinazoline-5,1′-cyclohexan]-4(6H)-one]
activity at 50 µM [1]: 32 ± 18%
